These results are taken from patent US8569017B2, “Method for the preventing and/or treating IL-1 beta lung pathology in mammals by administering a uric acid reducing compound” (Centre National de la Recheche Scientifique (CNRS), priority 2008, dated 2013).

Data set [1] concerns bleomycin-induced lung inflammation. Particulars: IL-1 receptor antagonist; published data (ref. 3), FIG. 1; cited from earlier work.
Data set [2] deals with lung inflammation upon intranasal crystals. Put plainly: Exogenous uric acid crystals-induced lung inflammation and remodeling in mice. The class given is in vivo. As to the method: (§1) Bleomycin sulfate (200-300 μg or 10-15 mg/kg) from Bellon Laboratories (Montrouge, France) in saline, uric acid or allopurinol crystals (100-1000 μg or 5-50 mg/kg) in saline or saline alone are given through the airways by nasal instillation in a volume of 40 μt, under light ketamine-xylasine anaesthesia. The number of cells, chemokines, cytokines and TIMP-1 in the bronchoalveolar space and in the lung were evaluated as described (3). Allopurinol (Sigma-Aldrich) was injected at 500 μg or 25 mg/kg subcutaneously in 0.1-ml sterile NaCl, uricase (Fasturtec, Sanofi Synthelabo) given at 4 μg or 0.2 mg/kg by nasal instillation in 40 μt, at the time of bleomycin administration, at 6 and 9 h. In some experiments, the IL-1Ra (Anakinra, Amgen) was injected at 200 μg or 10 mg/kg subcutaneously in 0.1-ml sterile NaCl, at the time of MSU crystals administration, at 2 and 4 h.
Uric acid or allopurinol crystals were obtained by dissolving 1.68 mg of powder in 0.01 M NaOH preheated to 70° C. and added as required to maintain pH between 7.1 and 7.2. The solution was filtered and incubated at room temperature under slowly and continuously agitation, until crystals have formed. Crystals were washed twice with ethanol 100%, dried, autoclaved and kept sterile. The weight of dry crystals was determined under sterile conditions, crystals are resuspended in PBS by sonication and examined under phase microscopy.
(§2) Bleomycin sulfate (10 mg/kg) from Bellon Laboratories, uric acid or allopurinol crystals (5-50 mg/kg) in saline or vehicle alone were administered by intranasal instillation under light ketamine-xylasine anesthesia, and BAL and lung tissue assayed after 6 h (for uric acid crystal) or 24 h (for bleomycin) for markers of inflammation including cell recruitment and in particular neutrophil influx, chemokine and cytokine levels including KC, IL-6 and IL-1β and 14 days later for markers of tissue remodeling such as gelatinases MMP9 and MMP2 and their inhibitor TIMP-1. […] IL-1Ra (Anakinra, Amgen) was injected at 10 mg/kg subcutaneously.
(§3) After incision of the trachea, a plastic cannula was inserted and airspaces were washed using […] of PBS solution, heated to 37° C. The rib cage was then gently massaged to enable maximum cell collection. The fluid was collected by careful aspiration. […] The samples collected were dispatched in 2 fractions: the first one (1 ml corresponding to the 2 first lavages) was used for mediator measurement and the second one for the cell determination (4 ml). The first fraction was centrifuged (600 g for 10 min) and supernatant was fractionated and kept at −80° C. until mediator determination. The cell pellet was then resuspended in 0.4 ml PBS and, pooled with the second fraction and maintained at 4° C. until cell determination.
(§4) Total cell count was determined in BAL fluid using a particle counter (Z2 Coulter, Beckman Coulter). Differential cell counts were performed on cytospin preparations (Cytospin 3, Thermo Shandon) after staining with 4 min May-Grünwald stain (MG-1L, Sigma chemical, Saint Louis, USA) and 8 min in 95% Giemsa stain (GS-500, Sigma chemical, Saint Louis, USA). Differential cell counts were made on 100 cells using standard morphological criteria.
(§5) IL-1β, KC, IL-6 and TIMP-1 levels in BAL fluid or lung homogenate were determined using ELISA assay kits according to manufacturer's instructions (Mouse DuoSet, R&D system, Minneapolis, USA).

Data set [3] relates to bleomycin-induced repair and fibrosis. Put plainly: Bleomycin-induced late inflammation, repair and fibrosis in mice (day 8/14). It counts as in vivo. The note with it: for Lung fibrotic score (fibrosis with thickening of alveolar septae and inflammation, semi-quantitative) / Alveolar wall destruction, collagen deposition and lung fibrosis on lung sections / Pro-MMP-9 and active MMP-2 gelatinase activities in BALF (zymography) / Pulmonary alpha-I collagen mRNA content: day 14 after BLM 5 mg/kg i.n.; for Lung fibrotic score (fibrosis with thickening of alveolar septae and inflammation, semi-quantitative): Ashcroft score, two observers, vs B6 mice; for Alveolar wall destruction, collagen deposition and lung fibrosis on lung sections: CAB staining; for Pro-MMP-9 and active MMP-2 gelatinase activities in BALF (zymography): allopurinol 15 mg/kg s.c. or uricase 0.2 mg/kg i.p.; for Pulmonary alpha-I collagen mRNA content: real time quantitative PCR. How it is done: Mice were injected at day 0 with allopurinol (15 mg/kg, s.c.), uricase (0.2 mg/kg, i.p.) or saline, at 0, 6 and 9 h after BLM instillation (5 mg/kg, i.n.) and every second days during 8 or 14 days to evaluate remodeling and fibrosis. (A) Late inflammation measured as lymphocytes and neutrophils in the BALF at day 8. […] (D) Alpha1 (I) collagen I mRNA in lung was analyzed by real time quantitative polymerase chain reaction (PCR) amplification after uricase or allopurinol treatment 14 days after BLM administration. […] Chromotrope Aniline Blue (CAB) staining, 20× and 200× magnification. (F) The lesions induced by bleomycin were assessed semi-quantitatively by two pathologists as described (see Materials and methods). […] Results are expressed as mean lung fibrotic score±SD. Data represent mean values±SD from 3 independent experiments (n=6 mice per group).
as §2, §5
MMP-2 and MMP-9 levels were determined by gelatin zymography. Briefly, non-reduced supernatant samples of BAL fluid (15 μl) and standards (161-0305, Bio-Rad, Hercule, USA) were loaded onto 7% polyacrylamide gels (wt/vol) incorporating 0.1% (wt/vol) gelatin substrate. The MMP in the gelatinolytic bands were evaluated using as references recombinant murine Pro-MMP-9 (100 Kd) and recombinant murine Pro-MMP-2 (72 Kd). Proteins were subjected to electrophoresis at 20-30 mA for 3 h. The gel was then washed twice in 2.5% Triton (vol/vol), rinsed 3 times quickly with distillated water, and placed 3 times for 20 min in distillated water. Each different wash was performed under gentle stirring. Gels were incubated overnight at 37° C. in 50 mM Tris buffer (containing 5 mM CaCl2 and 2 μM ZnCL2). […] Only these MMP were quantified.
Quantification of alpha-I collagen was described previously (26). Briefly, frozen lung samples were ground to a fine powder, and homogenized in 2 ml of Trizol reagent (In vitrogen Life technology, Paisley, UK). After vigorous shaking, chloroform was added and the samples were centrifuged at 12,000 g for 20 min. Total RNA was precipitated with isopropanol and dissolved in RNAse-free water. RNAs were reverse-transcribed into cDNA using SuperScript™^II (Invitrogen Life technologies, Paisley, UK). Real-time quantitative PCR was performed by fluorescent dye SYBR Green methodology, using SYBR Green PCR Master Mix (Applied Biosystems) and the ABI Prism 7000 apparatus (perkin-Elmer, Foster city, CA, USA).
After BAL and lung perfusion, the large lobe was fixed in 4% buffered formaldehyde for standard microscopic analysis. 3-μm sections were stained with Hematoxylin and Eosin (H&E) or Chromotrope Aniline Blue (CAB) as described previously (3). The severity of the morphological changes (infiltration by neutrophils and mononuclear cells, destruction and thickening of the alveolar septae and fibrosis) were assessed semi-quantitatively using a numeric fibrotic scale (Ashcroft score) (27).

Data set [4] has as its system bleomycin-induced lung inflammation. Nature of the data set: Bleomycin-induced acute lung inflammation in mice (24 h). It counts as in vivo. The note with it: for Uric acid levels in lung: allopurinol 25 mg/kg s.c. or uricase 0.2 mg/kg i.p. or i.n. at 0, 6 and 9 h; for Neutrophil recruitment in BALF / IL-1β production in lung: allopurinol 25 mg/kg s.c.; for Neutrophil recruitment in BALF: uricase 0.2 mg/kg (0, 6, 9 h) or z-YVAD-fmk 10 mg/kg i.p. (0, 4, 8 h); for Bleomycin-induced (acute) inflammation, overall: 24 h after BLM i.n., treated vs vehicle; for Efficacy, repeated administrations versus higher doses: dose optimisation; for KC production in lung / TIMP-1 production in lung / IL-1β production in lung: lung homogenates 24 h after BLM 10 mg/kg i.n.; for KC production in lung / TIMP-1 production in lung: allopurinol 25 mg/kg s.c. or z-YVAD-fmk 10 mg/kg i.p.; for IL-1β production in lung: uricase 0.2 mg/kg or z-YVAD-fmk 10 mg/kg i.p. How it is done:
as §1, §2, §3
After BAL was performed, the whole lung removed and placed inside a microtube (Lysing matrix D, Q Bio Gene, Illkrich, France) with 1 ml of PBS, total lung tissue extract was prepared using a Fastprep® system (FP120, Q Bio Gene, Illkrich, France), the extract was then centrifuged and the supernatant stored at −80° C. before mediator measurement, MPO or collagen assay with Sircol Collagen Assay (France Biochem Division, France).
as §4, §5
Uric acid concentration was determined in bronchoalveolar lavages and lung homogenates using Amplex® Red Uric Acid/Uricase Assay Kit (Molecular Probe, Eugene). Briefly, uricase catalyzes the conversion of uric acid to allantoin, hydrogen peroxide (H2O2) and carbon dioxide. In the presence of horseradish peroxidase (HRP), H2O2 reacts stoichiometrically with Amplex Red reagent to generate the red-fluorescent oxidation product, resorufin, measured spectrophotometrically.

[5] abbreviates: 24 h after BLM 10 mg/kg i.n., vs vehicle.
Setting [6] is: crystals 15 mg/kg i.n., kinetics.

Entries after “also recorded” stand apart in the source; their conditions may differ.

Regarding “Anakinra: IL-1 receptor antagonist, IL-1Ra (Anakinra, Amgen)”, in data set [1], the “Bleomycin-induced lung inflammation, overall” value is recorded as “attenuated”. Further, the “Inflammatory response to uric acid crystals (neutrophil influx in BAL)” value in data set [2] (6 h after UA crystals 15 mg/kg i.n., anakinra 10 mg/kg) is reported as “drastically reduced”.
As for `Oc1ncnc2[nH]ncc12` [allopurinol], the “Late lymphocyte and neutrophil recruitment in the BALF” value in data set [3] (day 8 after BLM 5 mg/kg i.n., allopurinol 15 mg/kg s.c. at 0, 6, 9 h and every second day) is “reduced”. The “Late production of TIMP-1 in lung homogenates and BALF” value in data set [3] (day 8 after BLM 5 mg/kg i.n., allopurinol 15 mg/kg s.c., BALF data not shown) is listed as “inhibited”. For the same molecule, in data set [3], the “Lung fibrotic score (fibrosis with thickening of alveolar septae and inflammation, semi-quantitative)” value was “significantly reduced”; the “Alveolar wall destruction, collagen deposition and lung fibrosis on lung sections” value was “significantly reduced”; the “Pro-MMP-9 and active MMP-2 gelatinase activities in BALF (zymography)” value is “significantly reduced and less”; the “Pulmonary alpha-I collagen mRNA content” value is listed as “inhibited”. The “Total cell counts in BALF” value in data set [4] (24 h after BLM 10 mg/kg i.n., allopurinol 25 mg/kg s.c. at 0, 6 and 9 h, vs vehicle) is recorded as “reduced”. In addition, in data set [4] (setting [5]), the “Uric acid levels in lung” value is reported as “prevented the increase; also recorded: prevented uric acid increases” and the “Neutrophil recruitment in BALF” value is given as “reduced”. Further, in data set [4], the “Bleomycin-induced (acute) inflammation, overall” value is “greatly inhibited”. The “IL-1β, KC and TIMP-1 in the BALF” value in data set [4] (after BLM, allopurinol treatment, data not shown) is recorded as “diminished”. Moreover, the “Efficacy, repeated administrations versus higher doses” value in data set [4] (data not shown) is on record as “repeated administrations were more effective than higher doses”. In addition, in data set [4] (vs vehicle), the “KC production in lung” value is “diminished”, the “TIMP-1 production in lung” value was “diminished” and the “IL-1β production in lung” value is recorded as “diminished”. In addition, the “KC production in lung” value in data set [4] (vs vehicle, listed as Allopurinol) was “reduced”.
In the case of z-YVAD-fmk, the “Neutrophil recruitment in BALF” value in data set [4] (setting [5]) is “reduced”. In data set [4], the “Bleomycin-induced (acute) inflammation, overall” value is recorded as “reduced”. Also, in data set [4] (vs vehicle), the “KC production in lung” value was “reduced”, the “TIMP-1 production in lung” value is on record as “reduced” and the “IL-1β production in lung” value is “reduced”.
Turning to `Oc1ncnc2[nH]ncc12` [allopurinol crystals, allopurinol], the “Neutrophil recruitment into the BALF” value in data set [2] (6 h after crystals instillation 15 mg/kg i.n.) is reported as “only little neutrophil recruitment”.
For the molecule `O=c1[nH]c(=O)c2[nH]c(=O)[nH]c2[nH]1` [uric acid crystals, uric acid], in data set [2] (setting [6]), the “Time at which inflammation was resolved” value worked out at 14 days and the “Time of maximum of inflammation (cell recruitment in BALF)” value stood at 6 h. Besides, the “Pulmonary TIMP-1 at day 14” value in data set [2] (day 14 after crystals, data not shown) is “returned to basal levels”. Further, in data set [2] (intranasal crystals, dose response), the “Cell recruitment in BALF (macrophages, neutrophils)” value is given as “dose-dependent cell recruitment”. Also, the “Pulmonary TIMP-1” value in data set [2] (lung homogenates after i.n. increasing doses of crystals) is on record as “induced pulmonary TIMP-1 expression; also recorded: dose-dependently induced”.

B1: uricase: recombinant enzyme uricase (Fasturtec, Sanofi Synthelabo), degrades uric acid into soluble allantoin (protein, UniProt Q00511 2-302, looked up)
Uricase: SAVKAARYGKDNVRVYKVHKDEKTGVQTVYEMTVCVLLEGEIETSYTKADNSVIVATDSIKNTIYITAKQNPVTPPELFGSILGTHFIEKYNHIHAAHVNIVCHRWTRMDIDGKPHPHSFIRDSEEKRNVQVDVVEGKGIDIKSSLSGLTVLKSTNSQFWGFLRDEYTTLKETWDRILSTDVDATWQWKNFSGLQEVRSHVPKFDATWATAREVTLKTFAEDNSASVQATMYKMAEQILARQQLIETVEYSLPNKHYFEIDLSWHKGLQNTGKNAEVFAPQSDPNGLIKCTVGRSSLKSKL
As to B1, in data set [3], the “Lung fibrotic score (fibrosis with thickening of alveolar septae and inflammation, semi-quantitative)” value is “significantly reduced”; the “Alveolar wall destruction, collagen deposition and lung fibrosis on lung sections” value is given as “significantly reduced”; the “Pro-MMP-9 and active MMP-2 gelatinase activities in BALF (zymography)” value is “significantly reduced and less”; the “Pulmonary alpha-I collagen mRNA content” value is “inhibited”. For the same molecule, in data set [4] (setting [5]), the “Uric acid levels in lung” value is listed as “reduced” and the “Neutrophil recruitment in BALF” value is “reduced”. For the same molecule, in data set [4] (data not shown), the “Efficacy, repeated administrations versus higher doses” value was “repeated administrations were more effective than higher doses”. Moreover, in data set [4] (vs vehicle), the “IL-1β production in lung” value is recorded as “reduced”.
